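Interpolation was linear, between the two tested concentrations surrounding the appropriate level; five concentrations were tested over 48 hours in 96-well plates. GI50 = concentration required for 50% inhibition of growth. TGI denotes the concentration required for complete inhibition of growth.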
How the values were obtained:
Experiment in all cases: NCI anticancer screen, dose series, 48 h
[1] = tested on: NCI-H226 lung
[2] = tested on: TK-10 renal
[3] = tested on: NCI-H522 lung
[4] = tested on: EKVX NSCLC
[5] = tested on: CCRF-CEM leukemia
[6] = tested on: SK-MEL-5 melanoma
[7] = tested on: OVCAR-8 ovarian
[8] = tested on: COLO 205 colon
[9] = tested on: MALME-3M melanoma
[10] = tested on: MDA-MB-435

Row | SMILES | GI50 [1] [µM] | TGI [1] [µM] | GI50 [2] [µM] | TGI [2] [µM] | GI50 [3] [µM] | TGI [3] [µM] | GI50 [4] [µM] | TGI [4] [µM] | GI50 [5] [µM] | TGI [5] [µM] | GI50 [6] [µM] | TGI [6] [µM] | GI50 [7] [µM] | TGI [7] [µM] | GI50 [8] [µM] | TGI [8] [µM] | GI50 [9] [µM] | TGI [9] [µM] | GI50 [10] [µM] | TGI [10] [µM]
1 | Cn1nc(C(F)(F)F)c(-c2ccc(Cl)c(C(F)(F)F)c2)c1-c1ccc(OCc2ccc(Cl)cc2)cc1O | 1.73 | 6.84 | 1.91 | 7.13 | 1.47 | 5.64 | 1.73 | 7.73 | 1.85 | 6.81 | 1.02 | 2.23 | 1.73 | 6.37 | 1.41 | 4.45 | 1.39 | 4.96 | 1.63 | 6.27
2 | Cc1ccc2nc3c(C)c(Cl)c(=O)cc-3sc2c1 | – | 64 | – | > 100 | – | > 56.1 | – | > 95.6 | – | 56.8 | – | 29.7 | – | > 100 | – | > 80.8 | – | > 71.5 | – | 39.7
3 | CC(CN=C(CC(=O)c1ccc(Br)cc1)c1ccccc1)N=C(CC(=O)c1ccc(Br)cc1)c1ccccc1 (stereo not given) | 67.3 | > 100 | 7.56 | > 100 | 5.53 | > 100 | 21 | > 100 | 20.1 | > 100 | 2.18 | 8.9 | 34.6 | > 100 | 7.58 | > 100 | 23.3 | > 100 | 41.8 | > 100
4 | Nc1ncnc2c1c(C(F)(F)F)cn2[C@@H]1O[C@H](CO)[C@@H](O)[C@H]1O | 1.12 | 79.7 | 0.926 | > 100 | 0.319 | 3.15 | 1.23 | > 27.3 | 0.102 | > 100 | 0.402 | 5.02 | 0.595 | > 100 | 0.0731 | 1.4 | 0.104 | 2.51 | 0.066 | 2.08
5 | CCOC1OCCCC1Br (stereo not given) | – | > 100 | – | > 100 | – | > 100 | – | > 100 | – | > 100 | – | > 100 | – | > 100 | – | > 100 | – | > 100 | – | > 100
6 | COc1ccc(-c2ccc(/C=C/C(=O)NO)cc2)cc1 | 1.09 | 4.39 | 1.55 | 21.3 | 0.801 | 16.4 | 2.23 | 12.9 | 0.0481 | > 100 | 1.1 | 3 | 0.896 | 4.62 | 2.34 | 10.1 | 0.65 | 11.8 | 2.12 | > 100
7 | CN(C)CCCNc1nn2c(=O)c3ccccc3nc2c2ccccc12 | 5.13 | 25.5 | 11.1 | 45.4 | 2.14 | 24 | 14.4 | 51.1 | 13.7 | 48.5 | 7.74 | 20.9 | 7.08 | 40.7 | 2.39 | 13 | 11.8 | 29.8 | 6.24 | 22.5

Reference: PubChem BioAssay (NCI)
